Laboratory results reported in publication PMC10873626, “Acceleration of infectious disease drug discovery and development using a humanized model of drug metabolism” (Proceedings of the National Academy of Sciences of the …, 2024).
≈ marks a conversion by molar mass, not a printed value. Read-outs that look alike come from different tables or passages of the source.

Legend:
in vivo [1] = details: female, C57BL/6J, mouse
in vivo [2] = details: female, 8HUM, mouse
M. tuberculosis H37Rv [3] = test: Acute M. tuberculosis infection efficacy model in WT mice (lung CFU); format: in vivo, Mycobacterium tuberculosis; details: efavirenz co-administration
CYP = details: cited from earlier work
[4] = human, in vivo; cited from earlier work
M. tuberculosis H37Rv [5] = test: Acute M. tuberculosis infection efficacy model in 8HUM (lung CFU); format: in vivo, Mycobacterium tuberculosis
[6] = microsomes
CYP3A4 = test: Hepatic CYP3A4 induction in 8HUM (Western blot); format: in vivo, mouse; details: efavirenz 20 and 40 mg/kg QD
Experimental: Microsomal samples were adjusted to 1 mg/mL in LDS sample buffer (Life Technologies) for loading of 10 µg total protein into each well and electrophoresis through 10% acrylamide gels for 1 h at 150 V, followed by transfer onto nitrocellulose membranes. Primary antibodies used for immunoblotting were anti-CYP3A4 (458234, BD Biosciences) and anti-GRP78 loading control (ab21685, Abcam). Pooled HLM material was the same as used in microsomal incubations. Loading control is not provided for Fig. 1B, as the comparison is between human and murine samples.
(§1) Mouse hepatic microsomes were prepared by homogenization of freshly-isolated liver in ice-cold SET buffer (0.25 M sucrose, 5 mM EDTA, and 20 mM Tris-HCL, pH 7.4) to make a 10% (w/v) homogenate solution (9 ml SET buffer/1 g liver) using a Polytron PT-MR-2100 homogenizer. Liver homogenates were centrifuged at 2000 rpm (Sorvall RTH-250 rotor) for 10 minutes at 4 °C and the supernatant then centrifuged at 12000 rpm (Sorvall SS-34 rotor) for 20 minutes at 4 °C. The resulting supernatant was centrifuged at 29130 rpm (Sorvall TFT-45.6 rotor) for 90 minutes at 4 °C and the microsomal pellets were resuspended in ice-cold SET buffer for storage at –70 °C.
(§2) Primary hepatocytes were freshly prepared from 8HUM using a modified version of Charni-Natan and Goldstein’s STAR Protocol(1). Following termination by cervical dislocation and femoral vessel cut […]

[7] = mouse, in vivo
M. tuberculosis = details: cited from earlier work
[8] = mouse, microsomes
[9] = human, 30 min, 5 µM, pH 7.4
[10] = DDI: pretomanid PK after CYP3A4 inducer pre-treatment in WT mice; format: in vivo, mouse
Experimental: (§3) With the exception of quinidine PK, female mice were used in all experiments. Dose levels and schedules were as detailed in SI Appendix. Serial blood samples (10 µL) were taken from the tail vein at the timepoints shown, diluted into 9 volumes of Milli-Q water, and stored at −20 °C prior to bioanalysis. Samples from mice infected with T. cruzi were snap-frozen in liquid nitrogen and thawed three times before storage at −20 °C until bioanalysis. Samples from mice infected with M. tuberculosis (15 µL) were mixed with two volumes of Milli-Q and stored at −70 °C until bioanalysis. All non-compartmental analysis, modeling, and simulation of PK was carried out using Phoenix WinNonlin version 8.3.1.5014 (Certara), as described in SI Appendix.
as §1, §2
(§4) canula (Merck) and the liver perfused using 30 mL Hanks Buffered Saline Solution (HBSS, -Ca 2+ -Mg2+, no phenol red, Gibco), containing 0.5 mM EDTA and 25 mM HEPES, running at a flow rate of 3 mL/min at approximately 37 °C. Subsequently, 10 mL HBSS digestion buffer (Ca2+ & Mg2+, no phenol red, Gibco), including 25 mM HEPES and 270 µL liberase (Merck) running at a flow rate of 3 mL/min and ~37 °C was then perfused. The final perfusion step utilised 30 mL HBSS digestion buffer containing 25 mM HEPES and 20 mg collagenase (Merck) at approximately 37 °C. The liver was excised, gall bladder removed and placed in a 10 cm petri dish where it was covered with 10 mL plating medium WME containing CM4000. The liver capsule was gently agitated with a glass rod and forceps to disperse the liver cells. Cells were then poured through a 100 µm nylon strainer (Falcon, Corning, NY, USA) into a 50 mL collection tube and topped up to 50 mL with plating medium at 37 °C. All solutions were perfused using a Miniplus peristaltic pump (Gilson, Middleton, WI, USA) and run through a 20 mL Intrafix Safeset bubble trap (Braun, Melsungen, Germany) to prevent potential blocking of vessels during perfusion. […]

[11] = DDI: pretomanid PK after CYP3A4 inducer pre-treatment in 8HUM; format: in vivo, mouse (8HUM)
Experimental: as §3, §1, §2, §4

[12] = Oral pharmacokinetics in 8HUM mice; details: female, mouse, whole blood
[13] = Oral pharmacokinetics in WT mice; details: female, mouse, whole blood
[14] = human, in vivo; cited from earlier work; remark: listed apart in the source
[15] = mouse, microsomes; remark: listed apart in the source
[16] = hepatocytes
in vivo [17] = details: female, mouse, po
[18] = mouse, microsomes; remark: listed apart in the source
[19] = mouse, hepatocytes
in vivo [20] = details: female, 8HUM, mouse, po
[21] = mouse, hepatocytes; remark: listed apart in the source
[22] = WT pre-treated with efavirenz (40 mg/kg once daily for three days)
[23] = WT pre-treated with rifampicin (2 mg/kg once, 24 hr prior)
[24] = 8HUM pre-treated with efavirenz (40 mg/kg once daily for three days)
[25] = 8HUM pre-treated with rifampicin (2 mg/kg once, 24 hr prior)

SMILES: COc1nc2ccc(Br)cc2cc1[C@@H](c1ccccc1)[C@@](O)(CCN(C)C)c1cccc2ccccc12 [Bedaquiline]
- AUC(0-t) (in vivo [1]): 2930 ng·h/mL
- AUC(0-t) (in vivo [2]): 19100 ng·h/mL
- decrease in efficacy of bedaquiline with efavirenz (M. tuberculosis H37Rv [3]): 1.3 log CFU
- CYP interaction: Substrate (CYP): 3A4
- terminal half-life [4]: 5.5 mo
- impact of efavirenz on efficacy of bedaquiline (M. tuberculosis H37Rv [5]; 8HUM, efavirenz co-administration): no impact

SMILES: O=C1Nc2ccc(Cl)cc2[C@@](C#CC2CC2)(C(F)(F)F)O1 [Efavirenz]
- CLint, Human [6]: 0.5 mL/min/g liver
- CYP interaction: Inducer (CYP): 3A4
- CYP interaction: Substrate (CYP): 2B6
- induction of hepatic CYP3A4 (CYP3A4): approximately threefold

SMILES: CNCC[C@@](O)(c1cccc2ccccc12)[C@H](c1ccccc1)c1cc2cc(Br)ccc2nc1OC [NDM-bedaquiline, N-desmethyl bedaquiline]
- impact of efavirenz on PK [7]: little impact
- potency of metabolite relative to parent compound (M. tuberculosis): approximately fivefold less potent

SMILES: Cc1c(O)cccc1C(=O)N[C@@H](CSc1ccccc1)[C@H](O)CN1C[C@H]2CCCC[C@H]2C[C@H]1C(=O)NC(C)(C)C [Nelfinavir]
- CLint, WT [8]: 50 mL/min/g liver
- CLint, Human [6]: 50 mL/min/g liver
- metabolites detected [9]: 18
- CYP interaction: Inhibitor (CYP): 3A4

SMILES: O=[N+]([O-])c1cn2c(n1)OC[C@@H](OCc1ccc(OC(F)(F)F)cc1)C2 [Pretomanid]
- CLint, WT [8]: 0.5 mL/min/g liver
- decrease in AUC of pretomanid [10, 22]: 65%
- decrease in Cmax of pretomanid [10, 22]: 31%
- decrease in AUC of pretomanid [10, 23]: 10%
- decrease in Cmax of pretomanid [10, 23]: 6%
- CLint, Human [6]: 0.5 mL/min/g liver
- minimum inhibitory concentration (M. tuberculosis): 0.06 µg/mL (≈ 0.167 µM)
- decrease in AUC of pretomanid [11, 24]: 54%
- decrease in Cmax of pretomanid [11, 24]: 14%
- decrease in AUC of pretomanid [11, 25]: 51%
- decrease in Cmax of pretomanid [11, 25]: 25%
- CL/F [12]: 2.17 mL/min/kg
- CL/F [13]: 4.43 mL/min/kg
- decrease in AUC of pretomanid [14]: 35%
- decrease in Cmax of pretomanid [14]: 28%
- CYP interaction: Substrate (CYP): 3A4
- CLint, 8HUM [15]: 0.5 mL/min/g liver
- efficacy in 8HUM compared with WT (lung CFU) (M. tuberculosis H37Rv [5]; M. tuberculosis infection, once a day for 8 days): less effective in 8HUM

SMILES: CO[C@H]1/C=C/O[C@@]2(C)Oc3c(C)c(O)c4c(c3C2=O)C2=NC3(CCN(CC(C)C)CC3)NC2=C(NC(=O)/C(C)=C\C=C\[C@H](C)[C@H](O)[C@@H](C)[C@@H](O)[C@@H](C)[C@H](OC(C)=O)[C@@H]1C)C4=O [Rifabutin]
- CLint, Human [16]: 1 mL/min/g liver
- CLint, Human [6]: 1.1 mL/min/g liver
- CL/F (in vivo [17]): 24.8 mL/min/kg
- CLint, CypC4KO [18]: 0.5 mL/min/g liver
- CYP interaction: Substrate (CYP): 3A4
- CLint, 8HUM [19]: 0.7 mL/min/g liver
- CL/F (in vivo [20]): 4.03 mL/min/kg
- CLint, WT [21]: 0.5 mL/min/g liver
